Among the data in patent US20140093513A1, “METHODS OF LOWERING PROPROTEIN CONVERSATE SUBTILISIN/KEXIN TYPE 9 (PCSK9)” (Catabasis Pharmaceuticals, Inc., priority 2012, published 2014) are IC50 and PCSK9 secretion values, retold here.

The experiment concerns PCSK9. In words: PCSK9 secretion assay in HepG2 cells (PCSK9 ELISA). Format: cell-based. The following applies: HepG2 cells; for IC50: 16 hours incubation, at least 6 concentrations. Here is the method: HepG2 cells (from ATCC, Catalog no. HB-8065) were maintained in DMEM (Invitrogen) supplemented with 10% fetal bovine serum (Invitrogen). The day prior to the PCSK9 assay, cells are seeded in 96-well collagen coated plates at 25,000 cells/well.
The compounds of the invention were stored at −20° C. until used. The test article compound was dissolved in 100% ethanol to a 50 mM stock solution. This was then diluted in FBS to a final concentration of 1 mM. This solution was placed in a sonicating water bath for 30 minutes. Subsequent dilutions were then made in FBS supplemented with an equivalent volume of ethanol and mixed by vortexing.
HepG2 cells were seeded onto a collagen coated 96-well plate (Becton Dickinson, Catalog no. 35-4407) the day prior to the assay, as described above. The next day, the cell medium was removed, washed once with 100 μL serum free DMEM to remove any residual PCSK9, and replaced with 90 μL of serum free DMEM. Ten microliters of each compound concentration prepared in FBS was then added. Each concentration of compound was tested in triplicate. The compound was incubated with the cells overnight for 16 hours. Following this incubation, 10 μL of AlamarBlue was added to each well and cells incubated for another 2 hours. The plates were then removed and AlamarBlue fluorescence was measured (excitation, 550 nm and […]) to assess cell viability. Cell culture supernatant was then diluted […] 1×RDSP Calibrator Diluent and PCSK9 ELISA was then performed with 50 μL of this diluted sample, as per the manufacturer's instructions. The ELISA was measured on a Victor X5 multilabel plate reader (PerkinElmer) at an absorbance of 450 nm with background correction measured at 550 nm (The PCSK9 Elisa kits can be purchased from R&D System, Catalog no. DPC900).
Alternatively, an IC50 could also be obtained when this type of assay was carried out using at least 6 different concentrations of the test compounds. Table 1 lists the IC50 values for the compounds tested in this assay.
Background: An ELISA detects its analyte on a solid surface through an enzyme-linked reagent.

The IC50 is the concentration that gives 50% inhibition. Lower therefore signals inhibition by little substance.

Regarding `CC/C=C\C/C=C\C/C=C\C/C=C\C/C=C\CCCC(=O)NC[C@@H]1CCCN1C(=O)c1cccnc1` [Compound I-32, (5Z,8Z,11Z,14Z,17Z)—N—(((S)-1-nicotinoylpyrrolidin-2-yl)methyl)icosa-5,8,11,14,17-pentaenamide], the IC50 was below 25 µM. As for `CC/C=C\C/C=C\C/C=C\C/C=C\C/C=C\CCCC(=O)NCCNC(=O)C(C)(C)Oc1ccc(CCNC(=O)c2ccc(Cl)cc2)cc1` [II-39, 4-chloro-N-(4-((1-((2-((5Z,8Z,11Z,14Z,17Z)-icosa-5,8,11,14,17-pentaenamido)ethyl)amino)-2-methyl-1-oxopropan-2-yl)oxy)phenethyl)benzamide], the 50% inhibitory concentration (IC50) is below 25 µM. In turn, `CC/C=C\C/C=C\C/C=C\C/C=C\C/C=C\CCCC(=O)N1CCC[C@H]1CNC(=O)C(C)(C)Oc1ccc(C(=O)c2ccc(Cl)cc2)cc1` [VII-24, 2-(4-(4-chlorobenzoyl)phenoxy)-N—(((S)-1-((5Z,8Z,11Z,14Z,17Z)-icosa-5,8,11,14,17-pentaenoyl)pyrrolidin-2-yl)methyl)-2-methylpropanamide] showed an IC50 above 50 µM.

As to `CC/C=C\C/C=C\C/C=C\C/C=C\C/C=C\CCCC(=O)N1CCC[C@H]1CNC(=O)c1cccnc1` [Compound I-34, N—(((S)-1-((5Z,8Z,11Z,14Z,17Z)-icosa-5,8,11,14,17-pentaenoyl)pyrrolidin-2-yl)methyl)nicotinamide], the IC50 was below 25 µM. `CC/C=C\C/C=C\C/C=C\C/C=C\C/C=C\CCCC(=O)N1CCC(NC(=O)c2cccnc2)CC1` [Compound I-22, N-(1-((5Z,8Z,11Z,14Z,17Z)-icosa-5,8,11,14,17-pentaenoyl)piperidin-4-yl)nicotinamide] showed an IC50 below 25 µM.

For `CC/C=C\C/C=C\C/C=C\C/C=C\C/C=C\CCCC(=O)NCCNC(=O)c1cncc(O)c1` [VI-5, 5-hydroxy-N-(2-((5Z,8Z,11Z,14Z,17Z)-icosa-5,8,11,14,17-pentaenamido)ethyl)nicotinamide], the IC50 was 25 to 50 µM. Turning to `CC/C=C\C/C=C\C/C=C\C/C=C\C/C=C\CCCC(=O)NCCNC(=O)c1ccccc1NC(=O)c1cccnc1` [Compound I-59, N-(2-((2-((5Z,8Z,11Z,14Z,17Z)-icosa-5,8,11,14,17-pentaenamido)ethyl)carbamoyl)phenyl)nicotinamide], the IC50 was above 50 µM.

`CC/C=C\C/C=C\C/C=C\C/C=C\C/C=C\CCCC(=O)N1CC[C@@H](NC(=O)C(C)(C)Oc2ccc(C(=O)c3ccc(Cl)cc3)cc2)C1` [VII-21, 2-(4-(4-chlorobenzoyl)phenoxy)-N—((R)-1-((5Z,8Z,11Z,14Z,17Z)-icosa-5,8,11,14,17-pentaenoyl)pyrrolidin-3-yl)-2-methylpropanamide] came in with an IC50 below 25 µM. Consider `CC/C=C\C/C=C\C/C=C\C/C=C\C/C=C\CCCC(=O)NCCNC(=O)c1cnccc1O` [VI-1, 4-hydroxy-N-(2-((5Z,8Z,11Z,14Z,17Z)-icosa-5,8,11,14,17-pentaenamido)ethyl)nicotinamide], for which the IC50 was above 50 µM. In the case of `CC(C)c1c(C(=O)Nc2ccccc2)c(-c2ccccc2)c(-c2ccc(F)cc2)n1CC[C@@H](O)C[C@@H](O)CC(=O)O` [atorvastatin, reference compound], the PCSK9 secretion result (10 μM atorvastatin, FIG. 2) was “increases PCSK9 secretion”. The compound `CC/C=C\C/C=C\C/C=C\C/C=C\C/C=C\CCCC(=O)NCCNC(=O)C(C)(C)Oc1ccc(Cl)cc1` [II-33, (5Z,8Z,11Z,14Z,17Z)—N-(2-(2-(4-chlorophenoxy)-2-methylpropanamido)ethyl)icosa-5,8,11,14,17-pentaenamide] had an IC50 below 25 µM. The same measure, in the same setting: the value for `CC/C=C\C/C=C\C/C=C\C/C=C\C/C=C\CCCC(=O)NCCNC(=O)c1ccncc1` [II-8, N-(2-((5Z,8Z,11Z,14Z,17Z)-icosa-5,8,11,14,17-pentaenamido)ethyl)isonicotinamide] was above 50 µM; that for `CC/C=C\C/C=C\C/C=C\C/C=C\C/C=C\CCCC(=O)NCCOCCOCCOC` [III-2, (5Z,8Z,11Z,14Z,17Z)—N-(2-(2-(2-methoxyethoxy)ethoxy)ethyl)icosa-5,8,11,14,17-pentaenamide] was above 50 µM. In the case of `CC/C=C\C/C=C\C/C=C\C/C=C\C/C=C\CCCC(=O)N1CC[C@H](N(C)C(=O)c2cccnc2)C1` [Compound I-61, N—((S)-1-((5Z,8Z,11Z,14Z,17Z)-icosa-5,8,11,14,17-pentaenoyl)pyrrolidin-3-yl)-N-methylnicotinamide], the IC50 was above 50 µM. With `CC/C=C\C/C=C\C/C=C\C/C=C\C/C=C\CCCC(=O)N1CC[C@@H](CNC(=O)C2=CC(=O)C(C)(c3ccccc3)O2)C1` (stereo partly drawn) [VII-6, N—(((S)-1-((5Z,8Z,11Z,14Z,17Z)-icosa-5,8,11,14,17-pentaenoyl)pyrrolidin-3-yl)methyl)-5-methyl-4-oxo-5-phenyl-4,5-dihydrofuran-2-carboxamide], the IC50 was below 25 µM.

The compound `CC/C=C\C/C=C\C/C=C\C/C=C\C/C=C\CCCC(=O)N[C@H]1CC[C@H](NC(=O)c2cccnc2)CC1` [Compound I-42, N-((1R,4R)-4-((5Z,8Z,11Z,14Z,17Z)-icosa-5,8,11,14,17-pentaenamido)cyclohexyl)nicotinamide] had an IC50 above 50 µM. In turn, `CC/C=C\C/C=C\C/C=C\C/C=C\C/C=C\C/C=C\CCC(=O)NCCN(C)CCNC(=O)c1cccnc1` [Compound I-2] registered an IC50 below 25 µM.

Consider `CC/C=C\C/C=C\C/C=C\C/C=C\C/C=C\C/C=C\CCC(=O)NCCNC(=O)C(C)(C)CCCOc1cc(C)ccc1C` [II-34, (4Z,7Z,10Z,13 Z,16Z,19Z)—N-(2-(5-(2,5-dimethylphenoxy)-2,2-dimethylpentanamido)ethyl)docosa-4,7,10,13,16,19-hexaenamide], for which the half-inhibitory concentration (IC50) was below 25 µM.

`CC/C=C\C/C=C\C/C=C\C/C=C\C/C=C\CCCC(=O)N1CCC(NC(=O)C(C)(C)Oc2ccc(C(=O)c3ccc(Cl)cc3)cc2)CC1` [VII-19, 2-(4-(4-chlorobenzoyl)phenoxy)-N-(1-((5Z,8Z,11Z,14Z,17Z)-icosa-5,8,11,14,17-pentaenoyl)piperidin-4-yl)-2-methylpropanamide]: the IC50 was below 25 µM. Turning to `CC/C=C\C/C=C\C/C=C\C/C=C\C/C=C\C/C=C\CCC(=O)NCCOCCOCCOCCOC` [III-3, (4Z,7Z,10Z,13Z,16Z,19Z)—N-(2,5,8,11-tetraoxamidecan-13-yl)docosa-4,7,10,13,16,19-hexaenamide], the IC50 is below 25 µM. Consider `CC/C=C\C/C=C\C/C=C\C/C=C\C/C=C\CCCC(=O)NCCNC(=O)c1ccccn1` [II-9, N-(2-((5Z,8Z,11Z,14Z,17Z)-icosa-5,8,11,14,17-pentaenamido)ethyl)picolinamide], for which the IC50 was 25 to 50 µM.

Consider `CC/C=C\C/C=C\C/C=C\C/C=C\C/C=C\CCCC(=O)NCCNC(=O)c1ccc(CCN2CCOCC2)nc1` [Compound V-2, N-(2-((5Z,8Z,11Z,14Z,17Z)-icosa-5,8,11,14,17-pentaenamido)ethyl)-6-(2-morpholinoethyl)nicotinamide], for which the IC50 was in the range of 25 to 50 µM. `CC/C=C\C/C=C\C/C=C\C/C=C\C/C=C\CCCC(=O)NCC1CCN(C(=O)c2cccnc2)CC1` [Compound I-29, (5Z,8Z,11Z,14Z,17Z)—N-((1-nicotinoylpiperidin-4-yl)methyl)icosa-5,8,11,14,17-pentaenamide] had an IC50 below 25 µM. Still for that read-out and setting: the value for `CC/C=C\C/C=C\C/C=C\C/C=C\C/C=C\CCCC(=O)N1CC[C@H](NC(=O)C2=CC(=O)C(C)(c3ccccc3)O2)C1` (stereo partly drawn) [VII-4, N—((S)-1-((5Z,8Z,11Z,14Z,17Z)-icosa-5,8,11,14,17-pentaenoyl)pyrrolidin-3-yl)-5-methyl-4-oxo-5-phenyl-4,5-dihydrofuran-2-carboxamide] was below 25 µM; that for `CC/C=C\C/C=C\C/C=C\C/C=C\C/C=C\CCCC(=O)NC[C@H]1CCCN1C(=O)c1cccnc1` [Compound I-33, (5Z,8Z,11Z,14Z,17Z)—N—(((R)-1-nicotinoylpyrrolidin-2-yl)methyl)icosa-5,8,11,14,17-pentaenamide] was below 25 µM. In turn, `CC/C=C\C/C=C\C/C=C\C/C=C\C/C=C\CCCC(=O)N1CCC(CN(C)C(=O)C2=CC(=O)C(C)(c3ccccc3)O2)CC1` (stereo not shown) [VII-8, N-((1-((5Z,8Z,11Z,14Z,17Z)-icosa-5,8,11,14,17-pentaenoyl)piperidin-4-yl)methyl)-N,5-dimethyl-4-oxo-5-phenyl-4,5-dihydrofuran-2-carboxamide] gave a 50% inhibitory concentration (IC50) below 25 µM. The compound `CC/C=C\C/C=C\C/C=C\C/C=C\C/C=C\CCCC(=O)NCCNC(=O)c1cccnc1C` [VI-6, N-(2-((5Z,8Z,11Z,14Z,17Z)-icosa-5,8,11,14,17-pentaenamido)ethyl)-2-methylnicotinamide] came in with an IC50 of 25 to 50 µM. In the case of `CC/C=C\C/C=C\C/C=C\C/C=C\C/C=C\CCCC(=O)N1CCC(CNC(=O)c2cnc(C)c[n+]2[O-])CC1` [VII-10, 2-(((1-((5Z,8Z,11Z,14Z,17Z)-icosa-5,8,11,14,17-pentaenoyl)piperidin-4-yl)methyl)carbamoyl)-5-methylpyrazine 1-oxide], the IC50 was below 25 µM.
